# Experimental data published in PubChem BioAssay AID1996.
# Conditions: buffer; pH 7.4; 200.0 µM
row,SMILES,solubility kinetic [µg/mL]
1,CCOc1ccc(S(=O)(=O)NCc2ccc3c(c2)OCO3)cc1C,24.3
2,Cc1ccc(S(=O)(=O)NC2CCCC2)cc1C(N)=O,> 42.4
3,CC(=O)COC(=O)C1=NN(c2ccccc2)C(=O)CC1,> 41.1
4,Cc1cccc(NC(=S)NC(=O)c2ccco2)c1C,36.7
5,CC(=O)Nc1ccc(NC(=O)COC(=O)c2ccc(S(=O)(=O)NCc3ccco3)cc2)cc1,8.9
6,CN(C)C(=S)Nc1ccc(Cc2ccncc2)cc1,36.5
7,O=S1(=O)CCC(NS(=O)(=O)c2ccc3ccccc3c2)C1 (stereo not given),> 48.8
8,CC(=O)Nc1ccc(-c2cc(C(=O)O)c3ccc(C)cc3n2)cc1,> 48.1
9,Nc1cc(=O)[nH]c(SCC(=O)c2ccc(F)cc2)n1,> 41.9
10,COc1cccc2c3c(c(=O)[nH]c12)CC(C)(C)O3,> 36.8
11,Cc1cc(C)nc(Nc2cc([N+](=O)[O-])ccc2C)n1.Cl,5.4
12,O=C(NCCc1ccc(F)cc1)c1ccc2nccnc2c1,41.6
13,CC1CCN(c2nc3ccccn3c(=O)c2C=O)CC1,> 40.7
14,COc1ccc(C(=O)NCCc2nc3cc([N+](=O)[O-])ccc3n2C)cc1,2.5
15,CCN(Cc1ccccc1)S(=O)(=O)c1ccc(OC)c2ncccc12,> 53.5
16,O=C(Nc1ccncc1)Nc1ccc(F)cc1,29.9
17,CC1(CCc2ccccc2)NC(=O)N(CC(=O)O)C1=O (stereo not given),16.6
18,O=C(C1CCCN(Cc2ccccc2F)C1)N1CCCC1.O=C(O)C(=O)O (stereo not given),43.2
19,CC1CCCCC1NC1CCN(C)CC1 (stereo not given),> 31.6
20,COc1ccc(C=O)c2[nH]c3c(Cl)ncnc3c12,3.4
21,O=C(O)c1ccc(S(=O)(=O)N2CCCC2)cc1,37.6
22,Cc1ccc(-c2c[n+](Cc3ccc(Cl)cc3)c3n2CCC3)cc1.[Cl-],> 53.9
23,Cc1cccc(OCC(=O)Nc2ccc(NC(=O)c3ccco3)cc2)c1,0.6
24,Cc1cccnc1NC(=O)c1ccc(OCc2c(C)noc2C)cc1,43.7

row,SMILES,solubility kinetic [µg/mL]
1,CC(NC(=O)CN1CCCC1)c1ccccc1 (stereo not given),> 34.8
2,O=C(CCC(=O)NC1CCCCC1)NCc1ccc(F)cc1,> 46
3,Cc1ccc(NC(=O)Cn2c(=O)oc3ccccc32)cc1C,4.2
4,O=C(Nc1ncccn1)c1ccc([N+](=O)[O-])cc1[N+](=O)[O-],38.7
5,Nc1nc(OCc2ccccc2)c2[nH]cnc2n1,35.9
6,Cc1nc(-c2cc(-c3ccc(Cl)cc3)no2)cs1,< 0.3
7,O=C(NC1CCN(Cc2cccc([N+](=O)[O-])c2)CC1)c1ccccc1,32.4
8,COCCCNCC(O)C(F)(F)F (stereo not given),24.4
9,COc1ccc(N=C(C)c2sc3ccccc3c2O)cc1,< 0.6
10,O=C(CNC(=O)c1ccccc1F)N/N=C/c1cccs1,> 45.8
11,CCOC(=O)Cn1c(C)c(Br)c(COC)c(C#N)c1=O,> 51.5
12,CC(C)(C)N(Cc1ccccc1)C(=O)COC(=O)C1CC1,> 43.4
13,COCN(C#N)c1nc(N(C)C)nc(N(C)C)n1,> 37.7
14,Cc1ccc(SCCOCCN2CCOCC2)cc1.Cl,> 47.7
15,CC(=O)c1cccc(NC(=S)NC2CCCCCCC2)c1,6
16,CCOc1ccc(OCCC(=O)OCC(=O)NCc2ccccc2)cc1,46.3
17,O=C(COC(=O)C1CC2CCCC(C1)C2=O)NC1CCCCC1 (stereo not given),> 48.2
18,Clc1nc(Cl)nc(NCCC2=CCCCC2)n1,> 41
19,COc1ccc(NC(=O)CC2SC(N3CCCC3)=NC2=O)cc1Cl (stereo not given),6.8
20,CC(C)C1N(C(N)=S)N=CC1(C)C (stereo not given),> 29.9
21,Cc1ccc(S(=O)(=O)N2CCCCC2)cc1NC(=O)CSc1nnc(C2CC2)n1C,> 67.4
22,COc1ccc(NS(=O)(=O)N2CCOCC2)cc1,> 40.8
23,CC1CCCC(NC(=O)COC(=O)c2ccc([N+](=O)[O-])s2)C1C (stereo not given),15.4
24,C=CCN=C1CC(C)(C)C(C(=O)OC)C(O)=C1C(=O)CCC (stereo not given),> 46.1

row,SMILES,solubility kinetic [µg/mL]
1,Cc1nc(NC(=O)COC(=O)c2ccc(CO)cc2)c(Cl)cc1Cl,21.9
2,Cc1noc(C)c1C(=O)NCCc1c(C)[nH]c2ccccc12,41.5
3,O=S(=O)(c1ccccc1F)N1CCCc2ccccc21,11.2
4,CC(C)Cn1c(N)c(C(=O)COC(=O)c2ccc(Br)cc2)c(=O)n(C)c1=O,8.8
5,Cn1c(=O)n(C)c2cc(S(=O)(=O)N3CCN(c4ccccc4)CC3)ccc21,0.3
6,Cc1cc(-c2onc(C)c2C(N)=O)no1,> 31.1
7,Cn1cccc1C(=O)OCc1cc(-c2ccco2)on1,13.8
8,CC1CN(c2nc(Nc3ccccc3)nc(N)c2[N+](=O)[O-])CC(C)O1 (stereo not given),48.1
9,CC(C)c1ccc(C(=O)OCC(=O)c2c(N)n(C)c(=O)n(C)c2=O)cc1,4.4
10,CC1CCCCC1NC(=O)Cn1c(=O)cnc2ccccc21 (stereo not given),5
11,S=C(NC1CCCCC1)N1CCc2[nH]c3ccccc3c2C1,1.3
12,COc1ccc(NC(=O)c2ccccc2-c2ccccc2)c(C)c1,7.2
13,O=C(O)/C=C/C(=O)NCC1CCC(CNC(=O)/C=C/C(=O)O)CC1 (stereo not given),> 50.8
14,Cc1ccc(C(=O)C2CCN(CC(=O)NC3CCCC3)CC2)cc1,> 49.3
15,O=C(CN1CCN(C(=O)c2ccco2)CC1)Nc1ccccc1,> 47
16,C/C=C/C=C/C(=O)OC(C)C(=O)Nc1cc([N+](=O)[O-])ccc1OC (stereo not given),18
17,Fc1ccc(N2CCN(Cc3cnc(Cl)s3)CC2)cc1,45.9
18,COc1cccc(CNC(=O)CCc2ccc(OC)c(OC)c2)c1,> 49.4
19,O=C(CCNC(=O)c1ccco1)Nc1ccc(OC(F)(F)F)cc1,19.7
20,NS(=O)(=O)c1ccc(CNC(=O)c2cnccn2)cc1,> 43.8
21,c1ccc2oc(NC3=NCN(C4CCCCC4)CN3)nc2c1,1.3
22,O=C(CN1CCCC1)Nc1ccc([N+](=O)[O-])cc1,> 37.4
23,CN(Cc1ccccc1)C(=O)c1cc2cc(F)ccc2[nH]1,1
24,CSCC[C@H](NC(=O)NC1CCCC1)C(=O)O,> 39.1

row,SMILES,solubility kinetic [µg/mL]
1,CCC1C(C#N)=C(SCC(N)=O)NC2=C1C(=O)CC(C)(C)C2 (stereo not given),46.9
2,CC(=O)Nc1ccc2nc(NC(=O)CCc3ccccc3)sc2c1,0.7
3,O=C(NCCc1ccccc1)c1cccc(N2CCCC2=O)c1,> 46.3
4,COc1cc(C(=O)NC(C)C2CC3CCC2C3)cc(OC)c1OC (stereo not given),9.8
5,COc1ccc(NC(=O)CCc2ccc(OC)c(OC)c2)cn1,> 47.5
6,Cl.O=S(=O)(N1CCCCCC1)N1CCNCC1,> 42.6
7,CN1C(=O)N(C)C2(C)CC1(C)N(C)C(=O)N2C,> 36
8,CSc1ccc(CNC(C)(C)CO)cc1.Cl,> 39.3
9,C=CCC(=O)N1CCCC(CCC(=O)NCc2ccccc2F)C1 (stereo not given),> 49.9
10,O=C(O)COc1ccc(/C=N/O)cc1Br,41
11,O=C1OC(Nc2ccc3ncccc3c2)c2ccccc21 (stereo not given),4.3
12,Cc1ccc(NC(=O)Nc2cnccn2)cc1,14.4
13,CSc1ncccc1C(=O)OCc1c(F)cccc1Cl,1.1
14,Cc1ccc(NC(=O)CN2C(=O)NC(C)(CC(C)C)C2=O)c(Br)c1 (stereo not given),55.5
15,CCc1ccccc1NC(=O)NCc1cccnc1,> 38.3
16,Cc1cc(C)nc(SCC(=O)Nc2ccc3c(c2)OCO3)n1,45.8
17,O=C(Nc1ccccc1)c1cc([N+](=O)[O-])ccc1Cl,3.1
18,COc1ccc(CCC(C)NCc2cc(OC)cc(OC)c2)cc1 (stereo not given),38.7
19,Cl.O=C(COc1ccc(Cl)cc1)NCCN1CCCC1,> 47.9
20,O=C1N=C(N2CCOCC2)S/C1=C\c1ccncc1,> 41.3
21,CCN1CSC(=S)N(Cc2ccccc2)C1,37.5
22,COCCNC(=O)CN1C(=O)NC2(CCOc3ccccc32)C1=O (stereo not given),42.9
23,O=C(COC(=O)c1cnc(Cl)c(Cl)c1)Nc1cccc(S(=O)(=O)N2CCOCC2)c1,38.9
24,O=C(O)c1cccc2c(/C=N/Nc3ccccn3)c[nH]c12,> 42

row,SMILES,solubility kinetic [µg/mL]
1,COc1ccc(C(=O)NCC2CCCO2)cc1OC (stereo not given),35.7
2,COc1ccccc1CC(=O)OCC(=O)N1CCN(c2ccc(F)cc2)CC1,> 58
3,Cc1ccnc(NCc2ccc(Cl)cc2)c1,3.7
4,CCc1ccc(N(CC(=O)N2CCOCC2)S(C)(=O)=O)cc1,> 49
5,O=C(NCCCl)Nc1ccccc1NS(=O)(=O)c1cccs1,> 54
6,Cc1cc(NC(=O)Cc2cc(F)cc(F)c2)no1,7.5
7,O=C(CN1C(=O)NC(CCc2ccccc2)C1=O)Nc1ccccc1C(F)(F)F (stereo not given),5.2
8,O=S(=O)(Nc1cccc(S(=O)(=O)N2CCCCC2)c1)c1ccccc1F,> 59.8
9,Nc1cc(Nc2ccccc2)ccn1.O=P(O)(O)O,> 42.5
10,COc1ccccc1-n1c(SCC(=O)NCc2ccc3c(c2)OCO3)nc2cc([N+](=O)[O-])ccc21,3.1
11,O=C(O)c1ccccc1NS(=O)(=O)c1ccc2ccccc2c1,> 49.1
12,O=C(NCC1COc2ccccc2O1)C1(c2ccccc2)CCCC1 (stereo not given),17.8
13,CCNS(=O)(=O)c1ccc(NC(=S)N2CCc3ccccc32)cc1,1.2
14,Cc1ccnc2nc(C(=O)OCC(=O)c3ccccc3)nn12,> 44.4
15,O=C(CSc1ccccn1)N1CCNC1=O,> 35.6
16,COc1ccc(Cn2cc([N+](=O)[O-])nc2C)cc1[N+](=O)[O-],> 43.8
17,Cn1c(=O)c2c(nc(Sc3ccccc3N)n2C)n(C)c1=O,39.1
18,O=C1CN(C(=O)COc2ccc(Br)cc2)c2ccccc2N1,10.3
19,C=CCNC(=O)CC12CC3CC(C1)CC(CC(=O)NCC=C)(C3)C2,> 49.6
20,Cc1ccc(-c2csc3ncnc(N4CCN(C)CC4)c23)cc1C,45.7
21,COc1ccc(CCNC(=O)c2cc(=O)n(C)c(=O)n2C)cc1OC,48.7
22,CCNC(=S)Nn1cnc2ccccc21,> 33
23,CC(C)N(CCC#N)C(=O)Nc1ccc2c(c1)CCO2,> 41
24,COc1ccc(C(=O)Nc2ccc(NC(=O)C3CCCCC3)nc2)cc1,0.4
